Where two headings read alike, the source gives them in different places.
Experiments:
Fms kinase = Fms kinase (Homo sapiens (Human), UniProt P07333); test: Fms kinase biochemical activity assay (AlphaScreen, biotin-(E4Y)10 phosphorylation)
Outline: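 Recombinant human Fms phosphorylating 30 nM biotin-(E4Y)10 with 100 μM ATP (1 ng/well enzyme) in Hepes pH 7.5 buffer with Mg2+/Mn2+, 5% DMSO, 20 min at 30 °C. Phosphotyrosine detected by AlphaScreen streptavidin donor/PY20 acceptor beads; IC50 from signal versus compound concentration.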

c-Kit kinase = c-Kit kinase (Homo sapiens (Human), UniProt P10721); test: c-Kit kinase biochemical activity assay (AlphaScreen, biotin-(E4Y)10 phosphorylation)
Chain of c-Kit kinase (P10721 26-976): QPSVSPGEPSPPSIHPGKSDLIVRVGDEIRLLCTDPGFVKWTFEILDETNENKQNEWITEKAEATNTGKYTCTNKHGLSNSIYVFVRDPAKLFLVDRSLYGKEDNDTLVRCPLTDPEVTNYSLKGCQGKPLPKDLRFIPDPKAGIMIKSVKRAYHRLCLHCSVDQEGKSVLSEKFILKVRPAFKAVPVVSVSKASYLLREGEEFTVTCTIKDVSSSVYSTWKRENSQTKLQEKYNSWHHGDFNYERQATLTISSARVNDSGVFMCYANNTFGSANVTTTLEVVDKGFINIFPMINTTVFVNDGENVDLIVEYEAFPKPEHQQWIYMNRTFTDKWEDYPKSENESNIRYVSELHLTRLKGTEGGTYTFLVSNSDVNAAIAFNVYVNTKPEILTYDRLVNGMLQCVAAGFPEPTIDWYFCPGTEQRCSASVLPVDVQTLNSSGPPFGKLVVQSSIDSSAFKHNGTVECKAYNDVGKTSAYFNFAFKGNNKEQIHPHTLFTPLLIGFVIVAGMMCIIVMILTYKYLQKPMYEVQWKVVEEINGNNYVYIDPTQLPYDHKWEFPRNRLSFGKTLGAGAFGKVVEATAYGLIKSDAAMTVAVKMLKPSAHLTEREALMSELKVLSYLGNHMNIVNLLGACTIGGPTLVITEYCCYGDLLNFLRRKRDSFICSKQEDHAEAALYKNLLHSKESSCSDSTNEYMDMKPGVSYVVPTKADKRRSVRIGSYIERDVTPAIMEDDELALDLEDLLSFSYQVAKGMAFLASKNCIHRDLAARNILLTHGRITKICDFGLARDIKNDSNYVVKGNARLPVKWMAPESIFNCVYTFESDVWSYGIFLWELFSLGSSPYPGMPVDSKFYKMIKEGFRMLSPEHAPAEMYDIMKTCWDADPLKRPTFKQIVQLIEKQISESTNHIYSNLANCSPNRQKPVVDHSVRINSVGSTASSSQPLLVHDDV

CYP1A2 = CYP1A2 (Homo sapiens (Human), UniProt P05177); test: CYP enzyme inhibition, fluorescent substrate
Chain of CYP1A2 (P05177 whole entry): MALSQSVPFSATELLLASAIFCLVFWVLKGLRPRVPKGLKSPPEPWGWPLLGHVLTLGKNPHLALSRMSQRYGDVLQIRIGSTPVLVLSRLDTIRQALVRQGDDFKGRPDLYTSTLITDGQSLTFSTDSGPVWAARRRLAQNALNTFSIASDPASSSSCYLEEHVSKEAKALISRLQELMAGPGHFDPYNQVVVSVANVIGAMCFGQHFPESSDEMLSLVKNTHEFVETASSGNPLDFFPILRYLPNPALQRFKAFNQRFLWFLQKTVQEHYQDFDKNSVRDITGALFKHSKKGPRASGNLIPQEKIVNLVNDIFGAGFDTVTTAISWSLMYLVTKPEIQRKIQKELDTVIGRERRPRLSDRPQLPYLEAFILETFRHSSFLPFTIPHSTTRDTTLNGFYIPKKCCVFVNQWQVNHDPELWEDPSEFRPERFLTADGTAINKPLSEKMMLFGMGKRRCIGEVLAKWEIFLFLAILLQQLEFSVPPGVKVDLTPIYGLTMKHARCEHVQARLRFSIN

CYP2C19 = CYP2C19 (Homo sapiens (Human), UniProt P33261); test: CYP enzyme inhibition, fluorescent substrate
Chain of CYP2C19 (P33261 whole entry): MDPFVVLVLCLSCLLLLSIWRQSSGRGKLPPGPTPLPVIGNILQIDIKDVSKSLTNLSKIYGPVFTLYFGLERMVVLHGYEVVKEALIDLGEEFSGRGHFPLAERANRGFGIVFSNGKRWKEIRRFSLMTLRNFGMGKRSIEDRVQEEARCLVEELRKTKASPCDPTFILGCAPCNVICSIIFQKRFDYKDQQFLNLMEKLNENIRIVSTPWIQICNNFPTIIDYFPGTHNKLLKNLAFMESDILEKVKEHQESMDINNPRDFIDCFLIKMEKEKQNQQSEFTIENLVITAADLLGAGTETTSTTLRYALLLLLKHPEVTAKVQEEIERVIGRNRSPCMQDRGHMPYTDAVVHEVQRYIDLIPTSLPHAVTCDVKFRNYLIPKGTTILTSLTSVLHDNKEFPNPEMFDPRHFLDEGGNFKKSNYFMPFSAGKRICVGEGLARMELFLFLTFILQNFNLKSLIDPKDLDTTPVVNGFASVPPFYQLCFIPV
Outline: (§1)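 […]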

CYP2C9 = CYP2C9 (Homo sapiens (Human), UniProt P11712); test: CYP enzyme inhibition, fluorescent substrate
Chain of CYP2C9 (P11712 whole entry): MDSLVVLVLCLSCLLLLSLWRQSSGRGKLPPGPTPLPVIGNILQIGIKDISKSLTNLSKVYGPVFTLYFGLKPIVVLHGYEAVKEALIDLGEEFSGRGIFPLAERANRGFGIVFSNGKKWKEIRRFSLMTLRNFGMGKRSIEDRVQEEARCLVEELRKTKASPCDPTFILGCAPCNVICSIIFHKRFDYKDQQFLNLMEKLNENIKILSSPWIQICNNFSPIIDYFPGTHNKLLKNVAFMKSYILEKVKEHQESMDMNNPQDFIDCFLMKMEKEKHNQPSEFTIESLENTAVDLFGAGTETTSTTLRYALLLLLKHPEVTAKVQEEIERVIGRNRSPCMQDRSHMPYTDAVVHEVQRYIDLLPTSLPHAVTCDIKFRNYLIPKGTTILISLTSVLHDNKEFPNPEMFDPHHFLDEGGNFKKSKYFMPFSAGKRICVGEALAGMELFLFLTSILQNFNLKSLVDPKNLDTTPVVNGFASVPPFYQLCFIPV
Outline: as §1

CYP2D6 = CYP2D6 (Homo sapiens (Human), UniProt P10635); test: CYP enzyme inhibition, fluorescent substrate; conditions: read-out: Cyp IC50 (μM) 2D6
Chain of CYP2D6 (P10635 whole entry): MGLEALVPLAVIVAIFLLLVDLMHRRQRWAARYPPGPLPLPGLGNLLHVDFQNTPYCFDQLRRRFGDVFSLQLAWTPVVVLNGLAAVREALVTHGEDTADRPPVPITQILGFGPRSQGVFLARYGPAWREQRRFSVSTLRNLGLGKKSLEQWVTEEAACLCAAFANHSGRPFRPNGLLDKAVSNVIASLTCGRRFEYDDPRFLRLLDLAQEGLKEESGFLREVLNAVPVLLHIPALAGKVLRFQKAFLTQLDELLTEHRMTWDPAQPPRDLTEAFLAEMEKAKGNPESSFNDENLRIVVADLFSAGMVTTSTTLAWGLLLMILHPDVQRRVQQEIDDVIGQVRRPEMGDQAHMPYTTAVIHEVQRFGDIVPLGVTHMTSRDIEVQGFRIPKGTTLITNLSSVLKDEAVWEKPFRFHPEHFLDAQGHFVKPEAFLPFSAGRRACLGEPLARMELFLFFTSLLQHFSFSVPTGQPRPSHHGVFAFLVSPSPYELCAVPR

CYP3A4(BFC) = CYP3A4(BFC) (Homo sapiens (Human), UniProt P08684); test: CYP enzyme inhibition, fluorescent substrate
Chain of CYP3A4(BFC) (P08684 whole entry): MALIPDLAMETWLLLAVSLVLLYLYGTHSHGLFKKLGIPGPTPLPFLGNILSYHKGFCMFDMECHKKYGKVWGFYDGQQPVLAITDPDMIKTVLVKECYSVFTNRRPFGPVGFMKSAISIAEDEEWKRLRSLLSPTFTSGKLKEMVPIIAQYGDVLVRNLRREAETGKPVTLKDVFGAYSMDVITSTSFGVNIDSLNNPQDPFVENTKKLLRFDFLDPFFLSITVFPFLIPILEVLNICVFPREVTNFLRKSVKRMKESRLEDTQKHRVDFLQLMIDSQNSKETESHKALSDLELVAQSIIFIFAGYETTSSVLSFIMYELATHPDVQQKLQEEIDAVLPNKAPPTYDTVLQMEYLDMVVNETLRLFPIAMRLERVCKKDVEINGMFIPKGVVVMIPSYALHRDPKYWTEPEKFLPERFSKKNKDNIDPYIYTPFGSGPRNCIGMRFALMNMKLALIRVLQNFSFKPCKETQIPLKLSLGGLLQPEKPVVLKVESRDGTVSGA
Outline: as §1

CYP3A4(BQ) = CYP3A4(BQ) (Homo sapiens (Human), UniProt P08684); test: CYP enzyme inhibition, fluorescent substrate
Chain of CYP3A4(BQ) (P08684 whole entry): as above
Outline: as §1

[1] = 100 μM ATP, read-out: Biochemical (IC50 μM) Fms
[2] = read-out: Biochemical activity (IC50 μM) Fms
[3] = read-out: Cyp IC50 (μM) 3A4(BFC), BFC substrate
[4] = read-out: Cyp IC50 (μM) 3A4(BQ), BQ substrate

Chain of Fms kinase (P07333 20-972): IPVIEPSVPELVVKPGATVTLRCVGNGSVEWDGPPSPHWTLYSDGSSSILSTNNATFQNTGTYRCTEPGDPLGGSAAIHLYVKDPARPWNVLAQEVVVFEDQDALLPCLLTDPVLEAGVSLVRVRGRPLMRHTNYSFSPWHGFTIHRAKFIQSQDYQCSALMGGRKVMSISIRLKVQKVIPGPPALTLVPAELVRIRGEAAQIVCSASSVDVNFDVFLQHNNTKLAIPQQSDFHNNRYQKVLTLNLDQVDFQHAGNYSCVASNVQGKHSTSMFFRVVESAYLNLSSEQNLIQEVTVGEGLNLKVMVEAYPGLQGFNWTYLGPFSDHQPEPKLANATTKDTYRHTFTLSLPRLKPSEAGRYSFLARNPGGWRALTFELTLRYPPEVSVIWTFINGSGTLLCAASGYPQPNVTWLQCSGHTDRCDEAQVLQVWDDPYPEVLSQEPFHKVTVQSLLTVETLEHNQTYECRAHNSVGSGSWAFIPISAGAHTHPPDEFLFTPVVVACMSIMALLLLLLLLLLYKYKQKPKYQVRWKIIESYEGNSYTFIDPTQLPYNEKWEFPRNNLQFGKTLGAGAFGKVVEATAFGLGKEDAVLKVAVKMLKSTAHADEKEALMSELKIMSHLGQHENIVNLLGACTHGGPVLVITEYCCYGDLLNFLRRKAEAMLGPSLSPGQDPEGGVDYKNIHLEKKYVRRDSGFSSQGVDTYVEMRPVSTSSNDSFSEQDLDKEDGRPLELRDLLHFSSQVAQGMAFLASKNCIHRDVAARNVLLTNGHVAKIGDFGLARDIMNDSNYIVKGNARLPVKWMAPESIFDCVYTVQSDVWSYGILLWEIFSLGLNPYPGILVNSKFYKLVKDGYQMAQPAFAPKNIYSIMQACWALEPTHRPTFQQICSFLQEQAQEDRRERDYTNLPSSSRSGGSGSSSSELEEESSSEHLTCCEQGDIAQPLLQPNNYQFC

Cc1cnc2[nH]cc(Cc3ccc(NCc4ccc(C(F)(F)F)nc4)nc3)c2c1 [Compound P-2019, [5-(5-Methyl-1H-pyrrolo[2,3-b]pyridin-3-ylmethyl)-pyridin-2-yl]-(6-trifluoromethyl-pyridin-3-ylmethyl)-amine]
IC50 (Fms kinase; [1]): < 0.1 µM | Biochemical activity selectivity (Kit IC50/Fms IC50) (Fms kinase): <20 | IC50 (Fms kinase; [2]): < 0.1 µM | IC50 (c-Kit kinase): < 0.1 µM | IC50 (CYP1A2; human, 15 min): > 10 µM | IC50 (CYP2C19): 5 to 10 µM | IC50 (CYP2C9; human, CYP2C9 enzyme (BD Biosciences), 45 min): < 5 µM | IC50 (CYP2D6): < 5 µM | IC50 (CYP3A4(BFC); [3]): < 5 µM | IC50 (CYP3A4(BQ); [4]): > 10 µM

COc1ccc(CNc2ncc(Cc3c[nH]c4ncc(C)cc34)cn2)cn1 [Compound P-2057, (6-Methoxy-pyridin-3-ylmethyl)-[5-(5-methyl-1H-pyrrolo[2,3-b]pyridin-3-ylmethyl)-pyrimidin-2-yl]-amine]
IC50 (Fms kinase; [1]): < 0.1 µM | Biochemical activity selectivity (Kit IC50/Fms IC50) (Fms kinase): <20 | IC50 (Fms kinase; [2]): < 0.1 µM | IC50 (c-Kit kinase): > 0.1 µM | IC50 (CYP1A2; human, 15 min): > 10 µM | IC50 (CYP2C19): 5 to 10 µM | IC50 (CYP2C9): 5 to 10 µM | IC50 (CYP2D6): > 10 µM | IC50 (CYP3A4(BFC); [3]): > 10 µM | IC50 (CYP3A4(BQ); [4]): > 10 µM

COc1ccc(CNc2ncc(Cc3c[nH]c4ncc(C)cc34)cc2F)cn1 [Compound P-1562, [3-Fluoro-5-(5-methyl-1H-pyrrolo[2,3-b]pyridin-3-ylmethyl)-pyridin-2-yl]-(6-methoxy-pyridin-3-ylmethyl)-amine]
Biochemical activity selectivity (Kit IC50/Fms IC50) (Fms kinase): <20 | IC50 (Fms kinase; [2]): < 0.1 µM | IC50 (c-Kit kinase): < 0.1 µM | IC50 (CYP1A2; human, 15 min): > 10 µM | IC50 (CYP2C19; read-out: Cyp IC50 (μM) 2C19): > 10 µM | IC50 (CYP2C9; read-out: Cyp IC50 (μM) 2C9): < 5 µM | IC50 (CYP2D6): > 10 µM | IC50 (CYP3A4(BFC)): 5 to 10 µM | IC50 (CYP3A4(BQ)): 5 to 10 µM

Cc1cnc2[nH]cc(Cc3ccc(NCc4cnccc4C(F)(F)F)nc3F)c2c1 [Compound P-2062, [6-Fluoro-5-(5-methyl-1H-pyrrolo[2,3-b]pyridin-3-ylmethyl)-pyridin-2-yl]-(4-trifluoromethyl-pyridin-3-ylmethyl)-amine]
Biochemical activity selectivity (Kit IC50/Fms IC50) (Fms kinase): >20 | IC50 (Fms kinase; [2]): < 0.1 µM | IC50 (c-Kit kinase): > 0.1 µM | IC50 (CYP1A2; human, 15 min): > 10 µM | IC50 (CYP2C19; read-out: Cyp IC50 (μM) 2C19): < 5 µM | IC50 (CYP2C9; read-out: Cyp IC50 (μM) 2C9): < 5 µM | IC50 (CYP2D6): > 10 µM | IC50 (CYP3A4(BFC)): 5 to 10 µM | IC50 (CYP3A4(BQ)): 5 to 10 µM

Cc1cnc2[nH]cc(Cc3ccc(NCc4ccc(Cl)nc4)nc3F)c2c1 [Compound P-2088, (6-Chloro-pyridin-3-ylmethyl)-[6-fluoro-5-(5-methyl-1H-pyrrolo[2,3-b]pyridin-3-ylmethyl)-pyridin-2-yl]-amine]
Biochemical activity selectivity (Kit IC50/Fms IC50) (Fms kinase): >20 | IC50 (Fms kinase; [2]): < 0.1 µM | IC50 (c-Kit kinase): > 0.1 µM | IC50 (CYP1A2; read-out: Cyp IC50 (μM) 1A2): > 10 µM | IC50 (CYP2C19; read-out: Cyp IC50 (μM) 2C19): < 5 µM | IC50 (CYP2C9; read-out: Cyp IC50 (μM) 2C9): < 5 µM | IC50 (CYP2D6): > 10 µM | IC50 (CYP3A4(BFC)): 5 to 10 µM | IC50 (CYP3A4(BQ)): 5 to 10 µM

Cc1cnc2[nH]cc(Cc3ccc(NCc4ccnc(F)c4)nc3F)c2c1 [Compound P-2118, [6-Fluoro-5-(5-methyl-1H-pyrrolo[2,3-b]pyridin-3-ylmethyl)-pyridin-2-yl]-(2-fluoro-pyridin-4-ylmethyl)-amine]
Biochemical activity selectivity (Kit IC50/Fms IC50) (Fms kinase): >20 | IC50 (Fms kinase; [2]): < 0.1 µM | IC50 (c-Kit kinase): > 0.1 µM | IC50 (CYP1A2; human, 15 min): > 10 µM | IC50 (CYP2C19; read-out: Cyp IC50 (μM) 2C19): < 5 µM | IC50 (CYP2C9): 5 to 10 µM | IC50 (CYP2D6): > 10 µM | IC50 (CYP3A4(BFC)): 5 to 10 µM | IC50 (CYP3A4(BQ); [4]): > 10 µM

Cc1cnc2[nH]cc(Cc3cnc(NCc4cccc(N5CCOCC5)n4)nc3)c2c1 [Compound P-2081, [5-(5-Methyl-1H-pyrrolo[2,3-b]pyridin-3-ylmethyl)-pyrimidin-2-yl]-(6-morpholin-4-yl-pyridin-2-ylmethyl)-amine]
Biochemical activity selectivity (Kit IC50/Fms IC50) (Fms kinase): <20 | IC50 (Fms kinase; [2]): < 0.1 µM | IC50 (c-Kit kinase): < 0.1 µM | IC50 (CYP1A2; human, 15 min): > 10 µM | IC50 (CYP2C19; read-out: Cyp IC50 (μM) 2C19): < 5 µM | IC50 (CYP2C9; read-out: Cyp IC50 (μM) 2C9): < 5 µM | IC50 (CYP2D6): > 10 µM | IC50 (CYP3A4(BFC); [3]): < 5 µM | IC50 (CYP3A4(BQ)): 5 to 10 µM

From patent US9096593B2, “Compounds and methods for kinase modulation, and indications therefor” (Plexxikon Inc., priority 2009, dated 2015)
